The values that follow come from ChEMBL document CHEMBL1145610, “N-Acetylhexosaminidase inhibitory properties of C-1 homologated GlcNAc- and GalNAc-thiazolines” (Bioorg Med Chem Lett, 2008).

The test addresses T1, B-N-acetylhexosaminidase (Streptomyces plicatus, UniProt O85361).
T1 sequence (O85361 whole entry): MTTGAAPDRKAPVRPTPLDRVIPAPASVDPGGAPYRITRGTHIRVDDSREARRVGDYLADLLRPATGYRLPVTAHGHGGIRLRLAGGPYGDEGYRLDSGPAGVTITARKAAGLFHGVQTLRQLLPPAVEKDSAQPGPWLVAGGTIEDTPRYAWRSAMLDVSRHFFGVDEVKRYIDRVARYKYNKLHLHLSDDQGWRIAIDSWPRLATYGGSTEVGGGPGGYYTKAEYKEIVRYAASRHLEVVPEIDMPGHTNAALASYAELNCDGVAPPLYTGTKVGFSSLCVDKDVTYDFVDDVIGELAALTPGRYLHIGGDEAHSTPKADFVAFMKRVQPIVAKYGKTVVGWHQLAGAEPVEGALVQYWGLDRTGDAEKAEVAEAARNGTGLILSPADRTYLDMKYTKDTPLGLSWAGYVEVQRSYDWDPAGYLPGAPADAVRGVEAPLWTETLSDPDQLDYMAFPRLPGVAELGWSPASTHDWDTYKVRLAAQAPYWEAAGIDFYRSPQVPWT
As to the kind of experiment: Inhibition of Streptomyces plicatus N-acetyl-hexosaminidase.
The Ki is a measure of affinity in units of concentration, obtained from inhibition or displacement. Regarding `CC1=N[C@@H]2[C@@H](O)[C@@H](O)[C@@H](CO)O[C@]2(CNC(=O)OC(C)(C)C)S1`, the Ki was more than 2000 µM. Consider `CC1=N[C@@H]2[C@@H](O)[C@H](O)[C@@H](CO)O[C@@H]2S1`, for which the inhibitory constant (Ki) amounted to 20 µM.

Compound `CC1=N[C@@H]2[C@@H](O)[C@@H](O)[C@@H](CO)O[C@]2(CN)S1` gave a Ki of more than 2000 µM.

With `CC1=N[C@@H]2[C@@H](O)[C@@H](O)[C@@H](CO)O[C@@H]2S1`, the Ki stood at 100 µM. As to `CC1=N[C@@H]2[C@@H](O)[C@H](O)[C@@H](CO)O[C@]2(C)S1`, the Ki stood at 200 µM. As to `Cc1nc2c(s1)O[C@H](CO)[C@H](O)[C@@H]2O`, the inhibitory constant (Ki) came out at 1600 µM. Regarding `CC(=O)NC1NC[C@H](CO)[C@H](O)[C@@H]1O` (single isomer, unassigned), the affinity, expressed as Ki, was 21 µM.
